Test [1] addresses EGFR Del19/T790M/C797S (H1975-clone #28) (Homo sapiens, UniProt P00533, T790M/C797S, form not given). In words: EGFR degradation, HTRF total-EGFR assay, H1975-clone #28 (DTC). The format is cell-based. The note with it: H1975-clone #28 Del19/T790M/C797S, 16 h treatment. In short, it runs like this:
(§1)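 H1975 clones with endogenous EGFR knocked out and homozygous exogenous EGFR mutants (#28 Del19/T790M/C797S; #25 L858R/T790M/C797S) treated 16 h at 37 °C, 8 doses, 5-fold from 10 μM, 0.2% DMSO. Total EGFR measured by HTRF on lysates, normalised to DMSO controls; DC50 and Dmax from curve fit.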

The target of test [2] is T1, EGFR L858R/T790M/C797S (H1975-clone #25) (Homo sapiens, UniProt P00533, C797S/L858R/T790M).
T1 construct: expressed in transfected cells; host or cells: H1975 (clone #25), lentiviral transduction, endogenous EGFR knocked out
T1 sequence (P00533 25-1210 T790M/C797S/L858R): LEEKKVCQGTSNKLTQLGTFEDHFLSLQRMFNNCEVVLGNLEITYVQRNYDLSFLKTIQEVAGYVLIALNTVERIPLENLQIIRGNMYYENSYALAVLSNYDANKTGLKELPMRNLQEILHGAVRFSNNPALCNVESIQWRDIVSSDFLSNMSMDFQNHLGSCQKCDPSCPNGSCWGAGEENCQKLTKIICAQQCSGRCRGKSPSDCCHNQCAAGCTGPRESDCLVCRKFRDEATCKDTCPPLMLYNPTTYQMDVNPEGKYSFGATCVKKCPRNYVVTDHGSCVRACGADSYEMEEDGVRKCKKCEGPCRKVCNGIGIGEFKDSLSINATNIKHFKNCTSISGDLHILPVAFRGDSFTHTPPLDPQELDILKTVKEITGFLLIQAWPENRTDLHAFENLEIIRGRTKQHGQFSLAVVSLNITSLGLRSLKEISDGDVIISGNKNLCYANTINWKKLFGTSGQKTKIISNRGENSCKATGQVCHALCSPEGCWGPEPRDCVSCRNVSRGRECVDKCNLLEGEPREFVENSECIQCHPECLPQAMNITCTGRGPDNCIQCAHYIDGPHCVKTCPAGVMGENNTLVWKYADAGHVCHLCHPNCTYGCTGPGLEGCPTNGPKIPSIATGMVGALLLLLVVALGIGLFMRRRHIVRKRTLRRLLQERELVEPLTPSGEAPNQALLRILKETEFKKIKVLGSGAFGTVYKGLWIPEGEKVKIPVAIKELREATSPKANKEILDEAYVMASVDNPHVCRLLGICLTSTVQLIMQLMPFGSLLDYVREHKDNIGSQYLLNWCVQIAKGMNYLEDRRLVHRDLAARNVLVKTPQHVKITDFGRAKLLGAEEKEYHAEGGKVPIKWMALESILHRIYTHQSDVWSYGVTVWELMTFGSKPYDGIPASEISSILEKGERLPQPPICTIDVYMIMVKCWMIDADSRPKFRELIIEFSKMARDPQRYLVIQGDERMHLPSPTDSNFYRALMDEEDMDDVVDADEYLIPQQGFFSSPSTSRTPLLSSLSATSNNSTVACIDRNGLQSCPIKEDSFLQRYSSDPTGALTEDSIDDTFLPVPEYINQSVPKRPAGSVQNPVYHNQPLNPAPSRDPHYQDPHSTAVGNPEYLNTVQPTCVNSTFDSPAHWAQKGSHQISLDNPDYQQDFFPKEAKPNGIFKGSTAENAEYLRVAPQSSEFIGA
Description: EGFR degradation, HTRF total-EGFR assay, H1975-clone #25 (LTC). The format is cell-based. Particulars: H1975-clone #25 L858R/T790M/C797S, 16 h treatment. In short, it runs like this: as §1

Molecules are shown by their SMILES.

Sequence of EGFR Del19/T790M/C797S (H1975-clone #28) (P00533 with tags, fused parts or gaps DEL746-750/T790M/C797S, form open): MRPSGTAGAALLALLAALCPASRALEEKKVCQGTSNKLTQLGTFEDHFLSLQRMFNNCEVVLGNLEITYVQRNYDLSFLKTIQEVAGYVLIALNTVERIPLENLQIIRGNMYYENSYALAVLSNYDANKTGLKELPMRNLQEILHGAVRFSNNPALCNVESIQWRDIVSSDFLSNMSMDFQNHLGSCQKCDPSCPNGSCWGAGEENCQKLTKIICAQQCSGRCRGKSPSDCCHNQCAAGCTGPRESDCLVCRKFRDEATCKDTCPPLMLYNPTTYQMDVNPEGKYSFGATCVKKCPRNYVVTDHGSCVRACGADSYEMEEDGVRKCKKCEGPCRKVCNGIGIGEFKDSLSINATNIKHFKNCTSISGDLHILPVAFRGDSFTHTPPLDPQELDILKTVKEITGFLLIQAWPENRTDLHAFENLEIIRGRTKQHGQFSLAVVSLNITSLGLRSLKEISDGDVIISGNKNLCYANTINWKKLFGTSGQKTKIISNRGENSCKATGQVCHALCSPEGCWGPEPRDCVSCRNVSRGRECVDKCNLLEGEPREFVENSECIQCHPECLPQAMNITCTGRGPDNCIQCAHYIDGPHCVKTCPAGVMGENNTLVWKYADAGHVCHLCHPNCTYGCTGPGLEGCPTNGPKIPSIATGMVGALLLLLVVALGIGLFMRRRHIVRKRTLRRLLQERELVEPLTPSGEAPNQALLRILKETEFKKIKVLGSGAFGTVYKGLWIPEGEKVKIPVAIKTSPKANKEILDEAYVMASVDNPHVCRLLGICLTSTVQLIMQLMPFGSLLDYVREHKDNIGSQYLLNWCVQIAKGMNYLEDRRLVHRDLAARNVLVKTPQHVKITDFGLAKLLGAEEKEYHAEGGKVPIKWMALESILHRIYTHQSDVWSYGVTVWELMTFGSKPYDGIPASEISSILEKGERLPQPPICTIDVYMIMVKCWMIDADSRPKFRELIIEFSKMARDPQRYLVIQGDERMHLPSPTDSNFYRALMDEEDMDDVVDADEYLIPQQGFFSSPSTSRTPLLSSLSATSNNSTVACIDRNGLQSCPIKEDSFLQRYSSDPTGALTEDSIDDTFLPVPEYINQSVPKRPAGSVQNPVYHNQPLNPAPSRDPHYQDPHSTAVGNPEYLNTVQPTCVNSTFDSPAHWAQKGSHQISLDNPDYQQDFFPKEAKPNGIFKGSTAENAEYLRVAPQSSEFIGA

In the case of `Cc1cc2cc(n1)-c1cnn(C)c1OC[C@H]1C[C@@H](CN3/C(=N/C2=O)Nc2ccc(N4CCN(CCc5ccc(C6CCC(=O)NC6=O)nc5C)CC4)cc23)C1` (stereo partly shown) [Example 82, 3-(5-(2-(4-((7^1s,7^3s,E)-1^1,2^6-dimethyl-3-oxo-5^2,5^3-dihydro-1^1H,5^1H-9-oxa-4-aza-5(2,1)-benzo[d]imidazola-2(2,4)-pyridina-1(4,5)-pyrazola-7(1,3)-cyclobutanacyclononaphane-5^6-yl)piperazin-1-yl)ethyl)-6-methylpyridin-2-yl)piperidine-2,6-dione], the “Degradation H1975 # 28 DTC” value in test [1] came to 79.5. In test [2], the “Degradation H1975 # 25-LTC” value was 90.3.
Taken in the same sequence, the figures for `COC[C@@H]1CN(c2ccc3c(c2)N2C[C@H]4C[C@@H](COc5c(cnn5C)-c5cc(cc(C)n5)C(=O)/N=C/2N3)C4)CCN1C1CCN(c2ccc(C3CCC(=O)NC3=O)nc2C)CC1` (stereo partly shown) [Example 109] were 81.0 and 90.4.
As for `Cc1cc2cc(n1)-c1cnn(C)c1OC[C@H]1C[C@@H](CN3/C(=N/C2=O)Nc2ccc(N4CCC(N5CCN(c6cnc(C7CCC(=O)NC7=O)cc6C)C[C@@H]5C)CC4)cc23)C1` (stereo partly drawn) [Example 110, 3-(5-((S)-4-(1-((7^1s,7^3R,E)-1^1,2^6-dimethyl-3-oxo-5^2,5^3-dihydro-1^1H,5^1H-9-oxa-4-aza-5(2,1)-benzo[d]imidazola-2(2,4)-pyridina-1(4,5)-pyrazola-7(1,3)-cyclobutanacyclononaphane-5^6-yl)piperidin-4-yl)-3-methylpiperazin-1-yl)-4-methylpyridin-2-yl)piperidine-2,6-dione], in test [1], the “Degradation H1975 # 28 DTC” value was 82.2. The “Degradation H1975 # 25-LTC” value in test [2] turned out to be 90.3.
Consider `Cc1cc2cc(n1)-c1cnn(C)c1OC[C@H]1C[C@@H](CN3/C(=N/C2=O)Nc2ccc(N(C)C4CC5(C4)CN(C4CCN(c6ccc(C7CCC(=O)NC7=O)nc6C)CC4)C5)cc23)C1` (stereo partly shown) [Example 112, 3-(5-(4-(6-(((7^1s,7^3s,E)-1^1,2^6-dimethyl-3-oxo-5^2,5^3-dihydro-1^1′H,5^1H-9-oxa-4-aza-5(2,1)-benzo[d]imidazola-2(2,4)-pyridina-1(4,5)-pyrazola-7(1,3)-cyclobutanacyclononaphane-5^6-yl)(methyl)amino)-2-azaspiro[3.3]heptan-2-yl)piperidin-1-yl)-6-methylpyridin-2-yl)piperidine-2,6-dione], for which the “Degradation H1975 # 28 DTC” value in test [1] is listed as 75.2. The “Degradation H1975 # 25-LTC” value in test [2] turned out to be 85.2.
Taken in the same sequence, the figures for `Cc1cc2cc(n1)-c1cnn(C)c1OC[C@H]1C[C@@H](CN3/C(=N/C2=O)Nc2ccc(N4CC5(C4)CN(C4CCN(c6ccc(C7CCC(=O)NC7=O)nc6C)CC4)C5)cc23)C1` (stereo partly shown) [Example 113, 3-(5-(4-(6-((7^1s,7^3s,E)-1^1,2^6-dimethyl-3-oxo-5^2,5^3-dihydro-1^1H,5^1H-9-oxa-4-aza-5(2,1)-benzo[d]imidazola-2(2,4)-pyridina-1(4,5)-pyrazola-7(1,3)-cyclobutanacyclononaphane-5^6-yl)-2,6-diazaspiro[3.3]heptan-2-yl)piperidin-1-yl)-6-methylpyridin-2-yl)piperidine-2,6-dione] were 75.7 and 78.4.
With `Cc1cc2cc(n1)-c1cnn(C)c1OC[C@H]1C[C@@H](CN3/C(=N/C2=O)Nc2ccc(N(C)CC4CN(C5CCN(c6ccc(C7CCC(=O)NC7=O)nc6C)CC5)C4)cc23)C1` (stereo partly shown) [Example 114, 3-(5-(4-(3-((((7^1s,7^3s,E)-1^1,2^6-dimethyl-3-oxo-5^2,5^3-dihydro-1′H,5^1H-9-oxa-4-aza-5(2,1)-benzo[d]imidazola-2(2,4)-pyridina-1(4,5)-pyrazola-7(1,3)-cyclobutanacyclononaphane-5^6-yl)(methyl)amino)methyl)azetidin-1-yl)piperidin-1-yl)-6-methylpyridin-2-yl)piperidine-2,6-dione], the “Degradation H1975 # 28 DTC” value in test [1] stood at 79.0. The “Degradation H1975 # 25-LTC” value in test [2] is recorded as 86.8.
Taken in the same sequence, the figures for `Cc1cc2cc(n1)-c1cnn(C)c1OC[C@H]1C[C@@H](CN3/C(=N/C2=O)Nc2ccc(N4C[C@@H]5C[C@H]4CN5C4CCN(c5ccc(C6CCC(=O)NC6=O)nc5C)CC4)cc23)C1` (stereo partly drawn) [Example 117, 3-(5-(4-((1S,4S)-5-((7^1s,7^3R,E)-1^1,2^6-dimethyl-3-oxo-5^2,5^3-dihydro-1^1H,5^1H-9-oxa-4-aza-5(2,1)-benzo[d]imidazola-2(2,4)-pyridina-1(4,5)-pyrazola-7(1,3)-cyclobutanacyclononaphane-5^6-yl)-2,5-diazabicyclo[2,2,1]heptan-2-yl)piperidin-1-yl)-6-methylpyridin-2-yl)piperidine-2,6-dione] were 78.2 and 90.6.
With `COC[C@@H]1CN(c2ccc3c(c2)N2C[C@H]4C[C@@H](COc5c(cnn5C)-c5cc(cc(C)n5)C(=O)/N=C/2N3)C4)CCN1C1CCN(c2cnc(C3CCC(=O)NC3=O)cc2C)CC1` (stereo partly drawn) [Example 120, 3-(5-(4-((S)-4-((7^1s,7^3R,E)-1^1,2^6-dimethyl-3-oxo-5^2,5^3-dihydro-1^1H,5^1H-9-oxa-4-aza-5(2,1)-benzo[d]imidazola-2(2,4)-pyridina-1(4,5)-pyrazola-7(1,3)-cyclobutanacyclononaphane-5^6-yl)-2-(methoxymethyl)piperazin-1-yl)piperidin-1-yl)-4-methylpyridin-2-yl)piperidine-2,6-dione], the “Degradation H1975 # 28 DTC” value in test [1] is 82.4. Further, in test [2], the “Degradation H1975 # 25-LTC” value came to 83.1.
As to `Cc1cc2cc(n1)-c1cnn(C)c1OC[C@H]1C[C@@H](CN3/C(=N/C2=O)Nc2ccc(N4CCN(C5CN(C6CCN(c7ccc(C8CCC(=O)NC8=O)nc7C)CC6)C5)CC4)cc23)C1` (stereo partly shown) [Example 121, 3-(5-(4-(3-(4-((7^1s,7^3s,E)-1^1,2^6-dimethyl-3-oxo-5^2,5^3-dihydro-1^1H,5^1H-9-oxa-4-aza-5(2,1)-benzo[d]imidazola-2(2,4)-pyridina-1(4,5)-pyrazola-7(1,3)-cyclobutanacyclononaphane-5^6-yl)piperazin-1-yl)azetidin-1-yl)piperidin-1-yl)-6-methylpyridin-2-yl)piperidine-2,6-dione], the “Degradation H1975 # 28 DTC” value in test [1] is on record as 83.2. Also, the “Degradation H1975 # 25-LTC” value in test [2] stood at 89.5.
The corresponding values for `Cc1cc2cc(n1)-c1cnn(C)c1OC[C@H]1C[C@@H](CN3/C(=N/C2=O)Nc2ccc(N4CC[C@H](N5CCN(c6ccc(C7CCC(=O)NC7=O)nc6C)CC5)C(F)(F)C4)cc23)C1` (stereo partly drawn) [Example 122, 3-(5-(4-((S)-1-((7^1s,7^3R,E)-1^1,2^6-dimethyl-3-oxo-5^2,5^3-dihydro-1^1H,5^1H-9-oxa-4-aza-5(2,1)-benzo[d]imidazola-2(2,4)-pyridina-1(4,5)-pyrazola-7(1,3)-cyclobutanacyclononaphane-5^6-yl)-3,3-difluoropiperidin-4-yl)piperazin-1-yl)-6-methylpyridin-2-yl)piperidine-2,6-dione] are 84.1 and 90.9.
As for `Cc1cc2cc(n1)-c1cnn(C)c1OC[C@H]1C[C@@H](CN3/C(=N/C2=O)Nc2ccc(N4CCN([C@@H]5CCN(c6ccc(C7CCC(=O)NC7=O)nc6C)CC5(F)F)CC4)cc23)C1` (stereo partly drawn) [Example 123, 3-(5-((R)-4-(4-((7^1s,7^3S,E)-1^1,2^6-dimethyl-3-oxo-5^2,5^3-dihydro-1^1H,5^1H-9-oxa-4-aza-5(2,1)-benzo[d]imidazola-2(2,4)-pyridina-1(4,5)-pyrazola-7(1,3)-cyclobutanacyclononaphane-5^6-yl)piperazin-1-yl)-3,3-difluoropiperidin-1-yl)-6-methylpyridin-2-yl)piperidine-2,6-dione], the “Degradation H1975 # 28 DTC” value in test [1] amounted to 85.6. Further, in test [2], the “Degradation H1975 # 25-LTC” value was 92.1.
In the case of `Cc1cc2cc(n1)-c1cnn(C)c1OC[C@H]1C[C@@H](CN3/C(=N/C2=O)Nc2ccc(N4CCN(C5CCN(c6ccc(C7CCC(=O)NC7=O)nc6C)CC5)CC45COC5)cc23)C1` (stereo partly shown) [Example 124, 3-(5-(4-(5-((7^1s,7^3S,E)-1^1,2^6-dimethyl-3-oxo-5^2,5^3-dihydro-1^1H,5^1H-9-oxa-4-aza-5(2,1)-benzo[d]imidazola-2(2,4)-pyridina-1(4,5)-pyrazola-7(1,3)-cyclobutanacyclononaphane-5^6-yl)-2-oxa-5,8-diazaspiro[3.5]nonan-8-yl)piperidin-1-yl)-6-methylpyridin-2-yl)piperidine-2,6-dione], in test [1], the “Degradation H1975 # 28 DTC” value amounted to 82.6. Also, in test [2], the “Degradation H1975 # 25-LTC” value is 87.5.
Taken in the same sequence, the figures for `Cc1cc2cc(n1)-c1cnn(C)c1OC[C@H]1C[C@@H](CN3/C(=N/C2=O)Nc2ccc(N4CCN([C@H]5CCN(c6ccc(C7CCC(=O)NC7=O)nc6C)CC5(F)F)CC4)cc23)C1` (stereo partly drawn) [Example 125, 3-(5-((S)-4-(4-((7^1s,7^3R,E)-1^1,2^6-dimethyl-3-oxo-5^2,5^3-dihydro-1^1H,5^1H-9-oxa-4-aza-5(2,1)-benzo[d]imidazola-2(2,4)-pyridina-1(4,5)-pyrazola-7(1,3)-cyclobutanacyclononaphane-5^6-yl)piperazin-1-yl)-3,3-difluoropiperidin-1-yl)-6-methylpyridin-2-yl)piperidine-2,6-dione] were 89.9 and 86.8.
Consider `Cc1cc2cc(n1)-c1cnn(C)c1OC[C@H]1C[C@@H](CN3/C(=N/C2=O)Nc2ccc(N4CC5CCC4CN5C4CCN(c5ccc(C6CCC(=O)NC6=O)nc5C)CC4)cc23)C1` (stereo partly shown) [Example 126, 3-(5-(4-(5-((7^1s,7^3s,E)-1^1,2^6-dimethyl-3-oxo-5^2,5^3-dihydro-1^1H,5^1H-9-oxa-4-aza-5(2,1)-benzo[d]imidazola-2(2,4)-pyridina-1(4,5)-pyrazola-7(1,3)-cyclobutanacyclononaphane-5^6-yl)-2,5-diazabicyclo[2.2.2]octan-2-yl)piperidin-1-yl)-6-methylpyridin-2-yl)piperidine-2,6-dione], for which, in test [1], the “Degradation H1975 # 28 DTC” value was 80.5. The “Degradation H1975 # 25-LTC” value in test [2] was found to be 85.9.

(Values after US20250332266A1, “COMPOUNDS FOR THE DEGRADATION OF EGFR KINASE” (BeiGene Switzerland GmbH, priority 2022, published 2025).)
